“Also recorded” adds a separate entry of the source.
Legend:
soft-rot fungi = assay: Activity against soft rot, test based on ENV 807 (reduction in mass of treated Pinus sylvestris wood samples); conditions: for Activity against soft-rot fungi in the test according to ENV 807 (in words): 0.3% active compound where stated; for Reduction in mass in % (mean): Pinus sylvestris specimens vacuum drenched with 0.3% active compound solution, ageing per EN 84, 20 weeks incubation
Protocol: The activity of prochloraz and of a copper/chromate preparation and tebuconazole, 3-iodo-2-propynyl butylcarbarbamate (IPBC) and imazalil was determined in a test based on ENV 807 (12/2001). To this end, test specimens of the wood type Pinus sylvestris of a size of 40×15×4 mm were vacuum drenched with 0.3 and 0.4% strength active compound solutions and conditioned for 14 days. This was followed by accelerated ageing according to EN 84.
Subsequently, the wood samples were placed on a malt agar medium according to EN 113 and inoculated with a spore suspension according to ENV 807. After 20 weeks of incubation, the reduction in mass of the wood samples treated was determined.

blueing fungi = conditions: J. A. Drysdale et al., New Zealand Journal of Forestry Science 1982; cited from earlier work

CCCCNC(=O)OCC#CI [IPBC, 3-iodo-2-propynyl butylcarbarbamate]
Activity against soft-rot fungi in the test according to ENV 807 (in words) (soft-rot fungi): entirely insufficient activity; also recorded: insufficiently active | Reduction in mass in % (mean) (soft-rot fungi): >4%

C=CCOC(Cn1ccnc1)c1ccc(Cl)cc1Cl (stereo not shown) [Imazalil, imazalil]
Activity against soft-rot fungi in the test according to ENV 807 (in words) (soft-rot fungi): entirely insufficient activity; also recorded: insufficiently active | Reduction in mass in % (mean) (soft-rot fungi): >4%

CCCN(CCOc1c(Cl)cc(Cl)cc1Cl)C(=O)n1ccnc1 [Prochloraz, N-propyl-N-[2-(2,4,6-trichlorophenoxy)ethyl]imidazole-1-carboxamide]
Activity against soft-rot fungi in the test according to ENV 807 (in words) (soft-rot fungi): broad activity | Activity against soft-rot fungi in the test according to ENV 807 (in words) (soft-rot fungi; listed as prochloraz): excellent activity; also recorded: effect comparable to that of the 0.4% strength copper/chromium standard | Reduction in mass in % (mean) (soft-rot fungi): <2% | Activity against blueing fungi (in words) (blueing fungi): insufficiently active

CC(C)(C)C(O)(CCc1ccc(Cl)cc1)Cn1cncn1 (stereo not shown) [Tebuconazole, tebuconazole]
Activity against soft-rot fungi in the test according to ENV 807 (in words) (soft-rot fungi): insufficiently active | Reduction in mass in % (mean) (soft-rot fungi): >4%

From patent publication US20090143452A1, “Use of prochloraz for wood protection” (priority 2005, published 2009)
